We go through one molecule from publication PMC5908784, “Extracellular loops 2 and 3 of the calcitonin receptor selectively modify agonist binding and efficacy” (Biochemical Pharmacology, 2018).

SMILES strings stand for the structures. Positions count from the first letter of the chain named. Where a SMILES comes first, the peptide text is derived from it. Bridges are numbered along the chain shown (N, C = ends).

What all share (assay): Heterologous whole cell competition binding
Holding throughout (conditions): heterologous competition of 125I-sCT(8-32), whole cells, mean ± S.E.M., SEM

The target of one assay is T1, hCTR P363A (Homo sapiens, UniProt P30988, P363A).
T1 construct: expressed in transfected cells
T1 sequence (P30988 25-474 P363A): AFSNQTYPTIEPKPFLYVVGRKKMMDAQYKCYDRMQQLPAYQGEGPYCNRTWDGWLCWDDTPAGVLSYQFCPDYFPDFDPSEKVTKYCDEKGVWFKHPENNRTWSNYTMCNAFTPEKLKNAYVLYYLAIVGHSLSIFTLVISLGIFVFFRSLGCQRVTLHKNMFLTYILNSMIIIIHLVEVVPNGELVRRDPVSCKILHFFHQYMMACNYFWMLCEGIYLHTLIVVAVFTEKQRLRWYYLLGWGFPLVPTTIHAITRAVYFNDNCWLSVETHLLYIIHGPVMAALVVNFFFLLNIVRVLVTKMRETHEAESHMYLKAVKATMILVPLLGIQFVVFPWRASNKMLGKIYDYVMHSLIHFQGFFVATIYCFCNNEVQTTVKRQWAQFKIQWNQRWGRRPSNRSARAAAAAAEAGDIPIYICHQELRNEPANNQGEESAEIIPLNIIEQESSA
As to the method: (§1) Following overnight incubation non-bound ligand was removed and radioactivity was determined using a gamma counter.
(§2) Data were corrected for radioligand occupancy using the Cheng-Prusoff equation in Prism; as such data are reported as pKi. Emax and EC50 were estimated from concentration-response curves using with a 3-parameter logistic equation in Prism (v7). These values are a composite of functional affinity, efficacy and stimulus response coupling. […] Significance was accepted at P < 0.05.

For another assay, the target named is T2, hCTR Y374A (Homo sapiens, UniProt P30988, Y374A).
T2 construct: c-Myc (N); expressed in transfected cells
T2 sequence (P30988 25-474 Y374A): T1 sequence (P30988 25-474 P363A) with A339P, Y350A
The procedure: as §1, §2

For the next assay, the target named is T3, hCTR Y284A (Homo sapiens, UniProt P30988, Y284A).
T3 construct: expressed in transfected cells
T3 sequence (P30988 25-474 Y284A): T1 sequence (P30988 25-474 P363A) with Y260A, A339P
As to the method:
as §1, §2

A further assay concerns the target T4, hCTR M376A (Homo sapiens, UniProt P30988, M376A).
T4 construct: c-Myc (N); expressed in transfected cells
T4 sequence (P30988 25-474 M376A): T1 sequence (P30988 25-474 P363A) with A339P, M352A
The procedure: as §1, §2

In another assay the target is T5, hCTR F359A (Homo sapiens, UniProt P30988, F359A).
T5 construct: expressed in transfected cells
T5 sequence (P30988 25-474 F359A): T1 sequence (P30988 25-474 P363A) with F335A, A339P
The procedure: as §1, §2

For orientation: Ki means the dissociation constant of the complex between target and ligand, obtained from inhibition or displacement. Low values mean tighter binding, high ones weaker binding. In the case of `CSCC[C@H](NC(=O)CNC(=O)[C@H](CO)NC(=O)[C@H](Cc1ccccc1)NC(=O)[C@H](CCCNC(=N)N)NC(=O)[C@H](Cc1c[nH]cn1)NC(=O)[C@H](Cc1ccccc1)NC(=O)[C@H](CC(N)=O)NC(=O)[C@H](CC(N)=O)NC(=O)[C@H](CC(C)C)NC(=O)[C@H](CC(N)=O)NC(=O)[C@H](CCCNC(=N)N)NC(=O)[C@H](Cc1c[nH]c2ccccc12)NC(=O)[C@H](Cc1ccc(O)cc1)NC(=O)[C@H](C)NC(=O)[C@H](CO)NC(=O)[C@H](CC(C)C)NC(=O)[C@@H](NC(=O)[C@@H]1CSSC[C@H](N)C(=O)N[C@@H](CO)C(=O)N[C@@H](CC(N)=O)C(=O)N[C@@H](CC(C)C)C(=O)N[C@@H](CO)C(=O)N[C@@H]([C@@H](C)O)C(=O)N1)C(C)C)C(=O)NCC(=O)N[C@@H](Cc1ccccc1)C(=O)NCC(=O)N1CCC[C@H]1C(=O)N[C@@H](CCC(=O)O)C(=O)N[C@H](C(=O)N1CCC[C@H]1C(N)=O)[C@@H](C)O` [pCT] (H-CSNLSTCVLSAYWRNLNNFHRFSGMGFGPETP-NH2; disulfide 1-7), the Ki on hCTR P363A was 55 nM; at hCTR Y374A it was 5.89 nM; on hCTR Y284A, 14.5 nM; at hCTR M376A, 7.76 nM; at hCTR F359A, 74.1 nM.
